# Columns and labels:
# Format in all cases: in vivo, mouse
# [1] = test system: C57BL/6J-Tyr^c-h/c-h mice (OCA1b model); assay: Transmission electron microscopy of iris, RPE and choroid, Tyr^c-h/c-h mice; settings: treated vs controls, statistically significant in all three tissues, FIG. 4
# Description: Transmission Electron Microscopy. Eyes from drug and vehicle-treated mice were dissected and divided into anterior and posterior segments (n=2 eyes from 2 separate mice in each group). The iris and posterior part (choroid, RPE and retina) of the eyes were removed and fixed in 2% glutaraldehyde and 2% paraformaldehyde in 0.1 M sodium phosphate buffer (PB), pH 7.4 for about 12 hours at room temperature (RT). After a wash with rinsing buffer (RB, 4% sucrose and 0.15 mM CaCl2 in PB), pH 7.4 at 4° C., tissues were postfixed in 1% OsO4 in 0.1 M PB, pH 7.4 for 1 hour. After rinsing and dehydration, tissues were embedded in Durcupan resin for 72 hours at 60° C. One micron semi-sections were used for tissue orientation. About 70-90 nm ultrasections were also collected in 200 mesh grids and counterstained with 5% uranyl acetate and 0.3% lead citrate. […]
# In order to quantitate the effect of NTBC on pigmentation in ocular tissues and to assess for sub-clinical changes in ocular pigmentation, transmission electron microscopy (TEM) of iris, retinal pigment epithelium (RPE), and choroid of treated and control mice (n=4 eyes from 2 mice for each group) was performed. […]
# [2] = test system: C57BL/6J-Tyr^c-2J/c-2J mice (OCA1a model); assay: Plasma tyrosine in NTBC-treated Tyr^c-2J/c-2J mice
# Description: Drug Dosing and Monitoring. […] Plasma tyrosine was assayed from retro-orbital blood taken from mice at 1 week, and 4 weeks into treatment. Because the volume of blood that could be obtained from non-terminal bleeds was small, the plasma from 2-3 mice was pooled to make a single measurement. Plasma samples were frozen immediately after collection on dry ice. Samples ready for assay were gently thawed, diluted with an equal volume of loading buffer (0.2 M lithium citrate, pH 2.2), and filtered using Vivaspin 500 (3000 Da molecular weight cut-off, Sartorius Stedman Biotech, Goettingen, Germany) spun in a fixed angle centrifuge at about 14000×g for 60 minutes at a temperature of about 16-20° C. The supernatant was collected and tyrosine was quantitated on a Biochrom 30 […] (Biochrom, Ltd., Cambridge, UK) using the manufacturer's specifications. At the beginning of the study, baseline plasma concentrations of tyrosine, coat color (gross and microscopic), anterior segment pigment, and posterior segment pigment were documented for each mouse prior to initiating experiments. […] It is known that a possible side effect of NTBC treatment is corneal irritation, which is monitored daily. […] At the end of four weeks time, plasma tyrosine concentrations were assessed in both treated and control animals.
# [3] = test system: C57BL/6J-Tyr^c-h/c-h mice (OCA1b model); assay: Coat and ocular pigmentation, clinical examination and electron microscopy, Tyr^c-h/c-h mice
# Description: Animal Husbandry and Clinical Examination. C57BL/6J mice (Stock #000664), C57BL/6JTyr^c-2J/c-2J mice (Stock #000058, MGI ID#1855985), and C57BL/6Tyr^c-h/c-h (Stock #000104, MGI ID#1855979) were obtained from the Jackson Laboratory (Bar Harbor, Me.). Mice were housed according to the institutional Animal Review Board standards with a 14 hour light/10 hour dark cycle. These studies conformed to the principles for laboratory animal research outlined by the Animal Welfare Act (NIH/HHS) and the ARVO Statement for the Use of Animals in Ophthalmic and Vision Research and were approved by the Institutional Animal Care and Use Committee of the National Eye Institute. Clinical examination and imaging of the anterior segment of mice were performed on gently-restrained, awake mice using a Haag-Streit BQ slit lamp and Imaging Module IM900® software (Haag-Streit, Inc., Mason, Ohio). Clinical examination of the posterior segment was performed on gently restrained, awake mice after dilation with one drop of 1% tropicamide (Alcon Laboratories, Inc., Fort Worth, Tex.) using an indirect ophthalmoscope (Keeler, Windsor, Berkshire, UK) with a 90D condensing lens (Volk, Mentor, Ohio). Fundus images were obtained on mice sedated with intraperitoneally injected […] diluted in normal saline. Images were obtained using a Nikon D.90 digital SLR camera with a Nikon 85 mm f/2.8D micro AF-S ED lens mounted to a custom-made aluminum stand, using a 5 cm long Hopkins rigid otoscope coupled to a Xenon Nova light source (175 watt) and fiberoptic cable (Karl Storz, Tuttlingen, Germany). Mice were euthanized with carbon dioxide according to institutional guidelines.
# Drug Dosing and Monitoring.
# Using the same protocol as described above, baseline plasma tyrosine, coat color (gross and microscopic), anterior segment pigment, and posterior segment pigment was documented for each mouse prior to initiating experiments. […] These treated mice were compared to an age- and gender-matched cohort of C57BL/6J-Tyr^c-h/c-h mice over the same time period. Corneal irritation due to NTBC treatment was monitored daily. At the start of treatment, an area of hair was plucked/shaved from each mouse's back, which has the effect of stimulating new hair growth and possibly new pigment deposition in the hair shaft. At the end of four weeks' time, plasma tyrosine concentrations were assessed in both treated and control animals.
# Assessment of the effect treatment and the end of the experimental time period commences with photodocumentation of coat color, anterior segment pigment and posterior segment pigment of each mouse. The mice were sacrificed using standard CO2 euthanasia protocol. One eye from each mouse was submitted for light microscopy, while the other is prepared for electron microscopy. Liver and kidney tissues were collected and processed for light microscopy histology, to insure no pathology is associated with treatment. Additional blood samples were taken and frozen at the time of euthanasia, for possible future studies. Hair shafts in plucked and non-plucked areas were examined and photographed under light microscopy. Melanosome number and size was quantified in the retinal pigmented epithelial cells (RPE) and choroid of the posterior pole of both treated and untreated mice, in a masked fashion, as previously described above.
# [4] = Tyr^c-h/c-h (Himalayan) mice, 4 mg/kg orally every other day, one month
smiles,measurement,setting,value
"O=C1CCCC(=O)C1C(=O)c1ccc(C(F)(F)F)cc1[N+](=O)[O-] [NTBC, 2-(-2-nitro-4 trifluoromethylbenzoyl)-1,3 cyclohexanedione]","Number of pigmented melanosomes in iris, choroid and RPE (TEM)",[1],clear increase
same,Plasma tyrosine concentration,"[2]; Tyr^c-2J/c-2J (OCA1a model), 4 mg/kg q.o.d. oral, after 30 days, n = 4","673 ± 73 μM (n = 4,"
same,"Plasma tyrosine concentrations, treated vs control","[2]; Tyr^c-2J/c-2J mice, 1 mg/kg every other day by oral gavage, one month",not statistically significantly different
same,Fundus pigmentation,[3]; [4],grossly unchanged
same,Iris pigmentation,[3]; [4],some increase in iris pigmentation
same,"Coat pigmentation, treated vs control","[3]; Tyr^c-h/c-h mice, 4 mg/kg orally every other day, one month, shaved patch",observable increase in pigmentation
same,Phenotypic changes,"[3]; Tyr^c-h/c-h mice, dose as in Example 1 (1 mg/kg every other day), one month",no phenotypic changes
same,RPE and choroidal melanosome pigment content (electron microscopy),"[3]; Tyr^c-h/c-h mice, treated vs control, preliminary data, FIG. 3",significant increase

# Source: patent US9364448B2, “Nitisinone for treatment of oculocutaneous/ocular albinism and for increasing pigmentation” (The United States of America, as represented by the …, priority 2010, dated 2016)
